Measured values published in ChEMBL document CHEMBL3880403, “Diaryl ethers as opioid receptor antagonist” (2006).

What follows are compounds tested on Rattus norvegicus (assay: Ex vivo inhibition of [3H]-Diprenophine binding to mu opioid receptor in striatum/nucleus accumbens isolated from rat treated with compound at 7 mg/kg, po for 6 hrs measured after 30 mins post [3H]-Diprenophine addition to tissue relative to control). Conditions: not given.
Type: functional

Row | SMILES | inhibition in vivo at 7 mg/kg
1 | CC(C)(C)CCNCc1ccc(Oc2ccc(C(N)=O)cn2)cc1 | 62%
2 | NC(=O)c1ccc(Oc2ccc(CNCCc3cccc(F)c3)cc2)nc1 | 40%
3 | Cc1cc(CNCCC(C)C)ccc1Oc1ccc(C(N)=O)cn1 | 55%
4 | CC(C)CCNCc1ccc(Oc2ccc(C(N)=O)cn2)c(Cl)c1 | 77%
5 | Cc1cc(CNCCC(C)(C)C)ccc1Oc1ccc(C(N)=O)cn1 | 59%
6 | NC(=O)c1ccc(Oc2ccc3c(c2)CCCN(CCc2ccccc2)C3)nc1 | 62%
7 | CC(C)CCNCc1ccc(Oc2ccc(C(N)=O)cn2)c(F)c1 | > 65%
8 | NC(=O)c1ccc(Oc2ccc(CNCCC3CCCCC3)cc2)nc1 | 79%
9 | O=C1CC[C@@]2(O)[C@H]3Cc4ccc(O)c5c4[C@@]2(CCN3CC2CC2)[C@H]1O5 [NALTREXONE] | < 40%
10 | CCCCNCc1ccc(Oc2ccc(C(N)=O)cn2)c(C)c1 | 38%
11 | CCCCCNCc1ccc(Oc2ccc(C(N)=O)cn2)c(OC)c1 | 75%
12 | COc1cc(CNCCC(C)(C)C)ccc1Oc1ccc(C(N)=O)cn1 | 55%
13 | NC(=O)c1ccc(Oc2ccc(CNCCc3ccc(F)cc3)cc2)cc1 | 50%
14 | NC(=O)c1ccc(Oc2ccc(CNCCC3CCCC3)cc2)nc1 | > 60%
15 | Cc1cc(CNCCC(C)C)ccc1Oc1ccc(C(N)=O)cc1F | 58%
16 | C[C@H]1CN(CC[C@H](O)C2CCCCC2)CC[C@@]1(C)c1cccc(O)c1 | > 40%
17 | COc1cc(CNCCc2ccccc2F)ccc1Oc1ccc(C(N)=O)cn1 | 54%
18 | CC(C)(C)CCNCc1ccc(Oc2ccc(C(N)=O)cn2)c(Cl)c1 | 83%
19 | CCCCCNCc1ccc(Oc2ccc(C(N)=O)nc2)c(F)c1 | 55%
20 | CC(C)CCNCc1ccc(Oc2ccc(C(N)=O)cn2)cc1 | > 40%
21 | NC(=O)c1ccc(Oc2ccc(CNCCc3cccs3)cc2)nc1 | > 40%

The compounds below were run against Mu-type opioid receptor (Homo sapiens) (UniProt P35372) (assay: Antagonist activity at mu opioid receptor (unknown origin) expressed in membranes assessed as inhibition of DAMGO1-induced GTP-gamma-[35S] binding after 4 hrs by micro beta scintillation counting analysis). Conditions: not given.
Sequence of Mu-type opioid receptor (Homo sapiens) (P35372 whole entry): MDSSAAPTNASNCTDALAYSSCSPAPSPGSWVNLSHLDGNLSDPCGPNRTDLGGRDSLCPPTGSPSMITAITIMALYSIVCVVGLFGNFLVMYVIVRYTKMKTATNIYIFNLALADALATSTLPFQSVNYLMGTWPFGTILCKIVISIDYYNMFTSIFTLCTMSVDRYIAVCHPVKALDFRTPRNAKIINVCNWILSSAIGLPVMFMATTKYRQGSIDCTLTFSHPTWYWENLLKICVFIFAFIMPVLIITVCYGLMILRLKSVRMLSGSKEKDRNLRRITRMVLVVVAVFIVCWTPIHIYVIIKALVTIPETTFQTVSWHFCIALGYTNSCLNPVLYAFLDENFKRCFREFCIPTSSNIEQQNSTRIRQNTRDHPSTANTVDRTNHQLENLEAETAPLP

Row | SMILES | Kb
22 | NC(=O)c1ccc(Oc2ccc(CCNCc3cccc(Cl)c3)cc2Cl)nc1 | 503 pM
23 | NC(=O)c1ccc(Oc2ccc(CNCCc3cccc(F)c3)cc2)nc1 | 72 pM
24 | NC(=O)c1ccc(Oc2ccc(CCNCc3ccccc3)cc2Cl)nc1 | 843 pM
25 | NC(=O)c1ccc(Oc2ccc(CCNCc3cccc(F)c3)cc2Cl)nc1 | 410 pM
26 | Cc1ccccc1CNCCc1ccc(Oc2ccc(C(N)=O)cn2)c(Cl)c1 | 281 pM
27 | CC(C)CCNCc1ccc(Oc2ccc(C(N)=O)cn2)cc1 | 200 pM
28 | NC(=O)c1ccc(Oc2ccc(CNCCc3cccs3)cc2)nc1 | 68 pM

What follows are compounds tested against Kappa-type opioid receptor (Homo sapiens) (UniProt P41145) (assay: Antagonist activity at kappa opioid receptor (unknown origin) expressed in membranes assessed as inhibition of U69593-induced GTP-gamma-[35S] binding after 4 hrs by micro beta scintillation counting analysis). Conditions: not given.
Sequence of Kappa-type opioid receptor (Homo sapiens) (P41145 whole entry): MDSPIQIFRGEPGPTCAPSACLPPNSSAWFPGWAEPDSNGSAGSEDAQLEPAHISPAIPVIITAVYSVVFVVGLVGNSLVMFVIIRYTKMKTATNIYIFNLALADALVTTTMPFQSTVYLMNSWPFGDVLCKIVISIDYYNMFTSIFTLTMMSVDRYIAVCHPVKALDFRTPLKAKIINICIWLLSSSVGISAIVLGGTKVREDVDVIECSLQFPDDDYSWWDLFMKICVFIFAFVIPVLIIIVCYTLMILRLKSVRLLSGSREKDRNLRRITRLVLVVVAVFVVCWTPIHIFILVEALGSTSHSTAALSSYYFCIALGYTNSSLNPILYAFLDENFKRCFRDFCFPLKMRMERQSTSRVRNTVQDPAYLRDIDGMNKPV

Row | SMILES | Kb
29 | NC(=O)c1ccc(Oc2ccc(CCNCc3cccc(Cl)c3)cc2Cl)nc1 | 6860 pM
30 | NC(=O)c1ccc(Oc2ccc(CNCCc3cccc(F)c3)cc2)nc1 | 894 pM
31 | NC(=O)c1ccc(Oc2ccc(CCNCc3ccccc3)cc2Cl)nc1 | 7860 pM
32 | NC(=O)c1ccc(Oc2ccc(CCNCc3cccc(F)c3)cc2Cl)nc1 | 4500 pM
33 | Cc1ccccc1CNCCc1ccc(Oc2ccc(C(N)=O)cn2)c(Cl)c1 | 3380 pM
34 | CC(C)CCNCc1ccc(Oc2ccc(C(N)=O)cn2)cc1 | 400 pM
35 | NC(=O)c1ccc(Oc2ccc(CNCCc3cccs3)cc2)nc1 | 355 pM

Each compound was assayed against Delta-type opioid receptor (Homo sapiens) (UniProt P41143) (assay: Antagonist activity at delta opioid receptor (unknown origin) expressed in membranes assessed as inhibition of DPDPE-induced GTP-gamma-[35S] binding after 4 hrs by micro beta scintillation counting analysis). Conditions: not given.
Sequence of Delta-type opioid receptor (Homo sapiens) (P41143 whole entry): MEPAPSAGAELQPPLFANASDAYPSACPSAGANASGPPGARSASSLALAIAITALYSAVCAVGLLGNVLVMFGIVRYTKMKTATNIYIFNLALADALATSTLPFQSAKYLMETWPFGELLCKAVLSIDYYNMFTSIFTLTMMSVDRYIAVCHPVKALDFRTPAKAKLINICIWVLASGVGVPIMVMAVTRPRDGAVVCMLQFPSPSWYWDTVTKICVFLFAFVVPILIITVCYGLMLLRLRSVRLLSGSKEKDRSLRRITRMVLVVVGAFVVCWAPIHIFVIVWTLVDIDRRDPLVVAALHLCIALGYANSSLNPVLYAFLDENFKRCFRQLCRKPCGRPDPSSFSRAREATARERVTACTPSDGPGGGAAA

Row | SMILES | Kb
36 | NC(=O)c1ccc(Oc2ccc(CCNCc3cccc(Cl)c3)cc2Cl)nc1 | 30100 pM
37 | NC(=O)c1ccc(Oc2ccc(CNCCc3cccc(F)c3)cc2)nc1 | 677 pM
38 | NC(=O)c1ccc(Oc2ccc(CCNCc3ccccc3)cc2Cl)nc1 | 17500 pM
39 | NC(=O)c1ccc(Oc2ccc(CCNCc3cccc(F)c3)cc2Cl)nc1 | 5780 pM
40 | Cc1ccccc1CNCCc1ccc(Oc2ccc(C(N)=O)cn2)c(Cl)c1 | 8900 pM
41 | CC(C)CCNCc1ccc(Oc2ccc(C(N)=O)cn2)cc1 | 4400 pM
42 | NC(=O)c1ccc(Oc2ccc(CNCCc3cccs3)cc2)nc1 | 708 pM

The compounds below were run on Rattus norvegicus (assay: Ex vivo inhibition of [3H]-Diprenophine binding to delta opioid receptor in striatum/nucleus accumbens isolated from rat treated with compound at 7 mg/kg, po for 6 hrs measured after 30 mins post [3H]-Diprenophine addition to tissue relative to control). Conditions: not given.
Type: functional

Row | SMILES | inhibition in vivo at 7 mg/kg
43 | CC(C)(C)CCNCc1ccc(Oc2ccc(C(N)=O)cn2)cc1 | 62%
44 | NC(=O)c1ccc(Oc2ccc(CNCCc3cccc(F)c3)cc2)nc1 | 40%
45 | Cc1cc(CNCCC(C)C)ccc1Oc1ccc(C(N)=O)cn1 | 55%
46 | CC(C)CCNCc1ccc(Oc2ccc(C(N)=O)cn2)c(Cl)c1 | 77%
47 | Cc1cc(CNCCC(C)(C)C)ccc1Oc1ccc(C(N)=O)cn1 | 59%
48 | NC(=O)c1ccc(Oc2ccc3c(c2)CCCN(CCc2ccccc2)C3)nc1 | 62%
49 | CC(C)CCNCc1ccc(Oc2ccc(C(N)=O)cn2)c(F)c1 | > 65%
50 | NC(=O)c1ccc(Oc2ccc(CNCCC3CCCCC3)cc2)nc1 | 79%
51 | O=C1CC[C@@]2(O)[C@H]3Cc4ccc(O)c5c4[C@@]2(CCN3CC2CC2)[C@H]1O5 [NALTREXONE] | < 40%
52 | CCCCNCc1ccc(Oc2ccc(C(N)=O)cn2)c(C)c1 | 38%
53 | CCCCCNCc1ccc(Oc2ccc(C(N)=O)cn2)c(OC)c1 | 75%
54 | COc1cc(CNCCC(C)(C)C)ccc1Oc1ccc(C(N)=O)cn1 | 55%
55 | NC(=O)c1ccc(Oc2ccc(CNCCc3ccc(F)cc3)cc2)cc1 | 50%
56 | NC(=O)c1ccc(Oc2ccc(CNCCC3CCCC3)cc2)nc1 | > 60%
57 | Cc1cc(CNCCC(C)C)ccc1Oc1ccc(C(N)=O)cc1F | 58%
58 | C[C@H]1CN(CC[C@H](O)C2CCCCC2)CC[C@@]1(C)c1cccc(O)c1 | > 40%
59 | COc1cc(CNCCc2ccccc2F)ccc1Oc1ccc(C(N)=O)cn1 | 54%
60 | CC(C)(C)CCNCc1ccc(Oc2ccc(C(N)=O)cn2)c(Cl)c1 | 83%
61 | CCCCCNCc1ccc(Oc2ccc(C(N)=O)nc2)c(F)c1 | 55%
62 | CC(C)CCNCc1ccc(Oc2ccc(C(N)=O)cn2)cc1 | > 40%
63 | NC(=O)c1ccc(Oc2ccc(CNCCc3cccs3)cc2)nc1 | > 40%

Each compound was assayed on Rattus norvegicus (assay: Ex vivo inhibition of [3H]-Diprenophine binding to kappa opioid receptor in striatum/nucleus accumbens isolated from rat treated with compound at 7 mg/kg, po for 6 hrs measured after 30 mins post [3H]-Diprenophine addition to tissue relative to control). Conditions: not given.
Type: functional

Row | SMILES | inhibition in vivo at 7 mg/kg
64 | CC(C)(C)CCNCc1ccc(Oc2ccc(C(N)=O)cn2)cc1 | 62%
65 | NC(=O)c1ccc(Oc2ccc(CNCCc3cccc(F)c3)cc2)nc1 | 40%
66 | Cc1cc(CNCCC(C)C)ccc1Oc1ccc(C(N)=O)cn1 | 55%
67 | CC(C)CCNCc1ccc(Oc2ccc(C(N)=O)cn2)c(Cl)c1 | 77%
68 | Cc1cc(CNCCC(C)(C)C)ccc1Oc1ccc(C(N)=O)cn1 | 59%
69 | NC(=O)c1ccc(Oc2ccc3c(c2)CCCN(CCc2ccccc2)C3)nc1 | 62%
70 | CC(C)CCNCc1ccc(Oc2ccc(C(N)=O)cn2)c(F)c1 | > 65%
71 | NC(=O)c1ccc(Oc2ccc(CNCCC3CCCCC3)cc2)nc1 | 79%
72 | O=C1CC[C@@]2(O)[C@H]3Cc4ccc(O)c5c4[C@@]2(CCN3CC2CC2)[C@H]1O5 [NALTREXONE] | < 40%
73 | CCCCNCc1ccc(Oc2ccc(C(N)=O)cn2)c(C)c1 | 38%
74 | CCCCCNCc1ccc(Oc2ccc(C(N)=O)cn2)c(OC)c1 | 75%
75 | COc1cc(CNCCC(C)(C)C)ccc1Oc1ccc(C(N)=O)cn1 | 55%
76 | NC(=O)c1ccc(Oc2ccc(CNCCc3ccc(F)cc3)cc2)cc1 | 50%
77 | NC(=O)c1ccc(Oc2ccc(CNCCC3CCCC3)cc2)nc1 | > 60%
78 | Cc1cc(CNCCC(C)C)ccc1Oc1ccc(C(N)=O)cc1F | 58%
79 | C[C@H]1CN(CC[C@H](O)C2CCCCC2)CC[C@@]1(C)c1cccc(O)c1 | > 40%
80 | COc1cc(CNCCc2ccccc2F)ccc1Oc1ccc(C(N)=O)cn1 | 54%
81 | CC(C)(C)CCNCc1ccc(Oc2ccc(C(N)=O)cn2)c(Cl)c1 | 83%
82 | CCCCCNCc1ccc(Oc2ccc(C(N)=O)nc2)c(F)c1 | 55%
83 | CC(C)CCNCc1ccc(Oc2ccc(C(N)=O)cn2)cc1 | > 40%
84 | NC(=O)c1ccc(Oc2ccc(CNCCc3cccs3)cc2)nc1 | > 40%

These compounds were tested on Rattus norvegicus (assay: In vivo inhibition of opioid receptor in obese rat assessed as compound dose causing effective decrease in feeding behavior). Conditions: not given.
Type: functional

Row | SMILES | ED
85 | CC(C)(C)CCNCc1ccc(Oc2ccc(C(N)=O)cn2)cc1 | <=3 ug/kg
86 | Cc1cc(CNCCC(C)C)ccc1Oc1ccc(C(N)=O)cn1 | 0.3 mg/kg
87 | CC(C)CCNCc1ccc(Oc2ccc(C(N)=O)cn2)c(F)c1 | 0.3 mg/kg
88 | NC(=O)c1ccc(Oc2ccc(CNCCC3CCCC3)cc2)nc1 | <=3 ug/kg
89 | CC(C)CCNCc1ccc(Oc2ccc(C(N)=O)cn2)cc1 | 0.3 mg/kg
90 | NC(=O)c1ccc(Oc2ccc(CNCCc3cccs3)cc2)nc1 | <=3 ug/kg
91 | CCCCCNCc1ccc(Oc2ccc(C(N)=O)cc2)cc1 | 3 mg/kg

Each compound was assayed on Rattus norvegicus (assay: Antiobesity activity in po dosed diet-induced obese rat assessed as inhibition of food consumption measured up to 24 hrs by indirect calorimetry assay). Conditions: read-out: MED.
Type: functional

Row | SMILES | minimal effective dose
92 | CC(C)(C)CCNCc1ccc(Oc2ccc(C(N)=O)cn2)cc1 | ≤ 3 mg/kg
93 | Cc1cc(CNCCC(C)C)ccc1Oc1ccc(C(N)=O)cn1 | 0.3 mg/kg
94 | CC(C)CCNCc1ccc(Oc2ccc(C(N)=O)cn2)c(F)c1 | 0.3 mg/kg
95 | O=C1CC[C@@]2(O)[C@H]3Cc4ccc(O)c5c4[C@@]2(CCN3CC2CC2)[C@H]1O5 [NALTREXONE] | > 10 mg/kg
96 | NC(=O)c1ccc(Oc2ccc(CNCCC3CCCC3)cc2)nc1 | ≤ 3 mg/kg
97 | C[C@H]1CN(CC[C@H](O)C2CCCCC2)CC[C@@]1(C)c1cccc(O)c1 | 1 mg/kg
98 | CC(C)CCNCc1ccc(Oc2ccc(C(N)=O)cn2)cc1 | 0.3 mg/kg
99 | NC(=O)c1ccc(Oc2ccc(CNCCc3cccs3)cc2)nc1 | ≤ 3 mg/kg
100 | CCCCCNCc1ccc(Oc2ccc(C(N)=O)cc2)cc1 | 3 mg/kg

The compounds below were run on Rattus norvegicus (assay: Antiobesity activity in diet-induced obese rat assessed as energy balance at 3 mg/kg, po measured up to 24 hrs by indirect calorimetry assay). Conditions: not given.
Type: functional

Row | SMILES | Activity
101 | CC(C)(C)CCNCc1ccc(Oc2ccc(C(N)=O)cn2)cc1 | -56 kcal/kg/day
102 | Cc1cc(CNCCC(C)C)ccc1Oc1ccc(C(N)=O)cn1 | -68 kcal/kg/day
103 | CC(C)CCNCc1ccc(Oc2ccc(C(N)=O)cn2)c(F)c1 | -81 kcal/kg/day
104 | NC(=O)c1ccc(Oc2ccc(CNCCC3CCCC3)cc2)nc1 | -39 kcal/kg/day
105 | C[C@H]1CN(CC[C@H](O)C2CCCCC2)CC[C@@]1(C)c1cccc(O)c1 | -36 kcal/kg/day
106 | CC(C)CCNCc1ccc(Oc2ccc(C(N)=O)cn2)cc1 | -35 kcal/kg/day
107 | NC(=O)c1ccc(Oc2ccc(CNCCc3cccs3)cc2)nc1 | -19 kcal/kg/day
108 | CCCCCNCc1ccc(Oc2ccc(C(N)=O)cc2)cc1 | -65 kcal/kg/day
